According to US10934527B2, “Generation of lineage-restricted progenitor cells from differentiated cells” (The Regents of the University of California, priority 2011, dated 2021):
Entries after “also recorded” stand apart in the source; their conditions may differ.

Experiments:
[1] = tested on: YFP+ myotubes; experiment: De-differentiation assay of lineage-marked YFP+ primary myotubes; type: cell-based, mice
Description: WT myoblasts or Tet-Oct4 (3×10^5) myoblasts upon 4-6 hour infection with 300 MOI of Ad-Cre virus were washed with growth medium twice to get rid of any residual virus and incubated for another 24 hours in growth medium at 37° C. in 5% CO2 incubator. These myoblasts were then lifted off from the plates by addition of 1×PBS, counted (3×10^4 cells/well) and co-cultured with 7×10^4 Lox-YFP myoblasts (obtained from B6.129X1-Gt(ROSA)26Sor^tm1(EYFP)Cos/J mice strain) per well in differentiation inducing medium DMEM (Cellgro)+2% horse serum+1% Penicillin/Streptomycin on 12 well (BD Falcon) on ECM (1:500) coated 12 well plates. […] The inhibitors were then withdrawn and cells were switched to growth medium containing bFGF (9 ng/ml). The treated cells were fed fresh growth medium and bFGF everyday over a period of time and the morphology of YFP expressing myotubes was routinely visualized by epifluorescence microscope using YFP filter and photographed using 10× and 20× objectives. For live Hoechst staining, 4 μM of Hoechst was added everyday to YFP labeled myotube cultures, incubated for 10 minutes at 37° C. in 5% CO2 incubator, washed off to remove unlabeled Hoechst and photographed.
The labeled YFP^+ myotubes per well in 4 day old Cre-Lox myotube cultures were determined to be ˜2600. After inhibitor treatment, ˜350 YFP^+ mononucleated cells were found in culture. […] Another method was based on the determination of Lox YFP myonuclei in labeled myotubes. […] Therefore, reprogramming efficiency calculated was the percent of YFP^+ mononucleated cells out of an estimated total number of Lox YFP myonuclei in YFP^+ myotubes and was determined ˜5.04% [(350/6940)×100] (see FIG. 11D).

[2] = tested on: primary myotubes; experiment: Apoptosis / cell death in treated primary myotubes; type: cell-based, mice
[3] = 96 hour old YFP+ myotubes treated daily for 2 days in DM (10 μM), then switched to GM

Molecule: COc1cccc2c1C(=O)c1c(O)c3c(c(O)c1C2=O)C[C@@](O)(C(=O)CO)C[C@@H]3O[C@H]1C[C@H](N)[C@H](O)[C@H](C)O1 [doxorubicin]
- appearance of YFP+ mononucleated cells from Cre-Lox myotubes ([1]; 0.2 uM for 48 hours, alone or in combination with the apoptosis inhibitor, then growth media 72-96 hours): no YFP^+ mononucleated cells were observed

Molecule: O.O.O.OO.OO.[K+].[OH-].[V].c1cnc2c(c1)ccc1cccnc12 [BpV, potassium bisperoxo(1,10-phenanthroline)oxovanadate]
- de-differentiation frequency / reprogramming efficiency, method 1: percent of YFP+ mononucleated cells out of the total number of labeled YFP+ myotubes [1, 3]: ~1.18%
- reprogramming efficiency, method 2: percent of YFP+ mononucleated cells out of estimated total number of Lox YFP myonuclei in YFP+ myotubes [1, 3]: ~0.4%
- cell death / apoptosis of myotubes ([2]; myotubes treated with BpV alone): cell death occurred; also recorded: did show apoptosis

Molecule: N-(2-Quinolyl)valyl-aspartyl-(2,6-difluorophenoxy)methyl ketone [Q-VD]
- appearance of YFP+ mononucleated cells from YFP+ myotubes ([1]; treated in DM, then switched to GM): no YFP^+ mononucleated cells were observed
- apoptosis by doxorubicin in Cre-Lox myotube cultures ([2]; with 0.2 uM doxorubicin for 48 hours): reduced apoptosis
